Results reported in ChEMBL document CHEMBL1146784, “Human ACAT-1 and -2 inhibitory activities of saucerneol B, manassantin A and B isolated from Saururus chinensis” (Bioorg Med Chem Lett, 2004).

Legend:
Mus musculus = organism: Mus musculus; test: Effect against body weight of mice when treated with 0.1% wt/wt diet of compound for 10 days; On day 0 =21.8 g; type: functional
[1] = target: T1, Sterol O-acyltransferase 2 (Homo sapiens) (UniProt O75908); test: (§1) Concentration required to inhibit Acyl coenzyme A:cholesterol acyltransferase 2; conditions: concentration not given here
T1 sequence (whole entry): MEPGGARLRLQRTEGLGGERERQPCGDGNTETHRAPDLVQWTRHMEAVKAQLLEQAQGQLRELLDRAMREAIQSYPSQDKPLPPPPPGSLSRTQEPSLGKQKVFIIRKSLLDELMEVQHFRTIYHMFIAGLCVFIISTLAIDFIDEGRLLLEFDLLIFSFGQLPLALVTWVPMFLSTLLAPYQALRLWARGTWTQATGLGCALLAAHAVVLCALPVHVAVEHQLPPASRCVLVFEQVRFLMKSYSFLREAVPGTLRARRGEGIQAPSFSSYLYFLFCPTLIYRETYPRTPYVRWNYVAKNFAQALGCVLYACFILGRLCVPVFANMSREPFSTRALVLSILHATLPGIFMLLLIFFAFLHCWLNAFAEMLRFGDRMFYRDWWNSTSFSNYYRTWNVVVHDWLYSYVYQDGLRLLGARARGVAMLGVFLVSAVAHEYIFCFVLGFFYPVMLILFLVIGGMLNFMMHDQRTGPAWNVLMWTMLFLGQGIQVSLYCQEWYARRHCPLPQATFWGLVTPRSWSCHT

[2] = target: T2, Sterol O-acyltransferase 2 (Homo sapiens, UniProt O75908); test: as §1
T2 sequence (O75908 whole entry): T1 sequence (whole entry)

CC(C)(Sc1cc(C(C)(C)C)c(O)c(C(C)(C)C)c1)Sc1cc(C(C)(C)C)c(O)c(C(C)(C)C)c1 [PROBUCOL]
Body weight (Mus musculus): 23.7 g

COc1ccc(C(O)C(C)Oc2ccc([C@H]3O[C@H](c4ccc(OC(C)C(O)c5ccc6c(c5)OCO6)c(OC)c4)[C@H](C)[C@H]3C)cc2OC)cc1OC (stereo partly drawn)
inhibition [1]: 32%

COc1ccc(C(O)C(C)Oc2ccc([C@H]3O[C@H](c4ccc(OC(C)C(O)c5ccc(OC)c(OC)c5)c(OC)c4)[C@H](C)[C@H]3C)cc2OC)cc1OC (stereo partly drawn)
IC50 [2]: 39 µM
